Molecular target: pyruvate kinase isozyme type M2 (PKM2) (Homo sapiens, UniProt P14618)
Assay: SPR with immobilized recombinant human PKM2
Format: binding

Sequence of pyruvate kinase isozyme type M2 (PKM2) (P14618 2-531): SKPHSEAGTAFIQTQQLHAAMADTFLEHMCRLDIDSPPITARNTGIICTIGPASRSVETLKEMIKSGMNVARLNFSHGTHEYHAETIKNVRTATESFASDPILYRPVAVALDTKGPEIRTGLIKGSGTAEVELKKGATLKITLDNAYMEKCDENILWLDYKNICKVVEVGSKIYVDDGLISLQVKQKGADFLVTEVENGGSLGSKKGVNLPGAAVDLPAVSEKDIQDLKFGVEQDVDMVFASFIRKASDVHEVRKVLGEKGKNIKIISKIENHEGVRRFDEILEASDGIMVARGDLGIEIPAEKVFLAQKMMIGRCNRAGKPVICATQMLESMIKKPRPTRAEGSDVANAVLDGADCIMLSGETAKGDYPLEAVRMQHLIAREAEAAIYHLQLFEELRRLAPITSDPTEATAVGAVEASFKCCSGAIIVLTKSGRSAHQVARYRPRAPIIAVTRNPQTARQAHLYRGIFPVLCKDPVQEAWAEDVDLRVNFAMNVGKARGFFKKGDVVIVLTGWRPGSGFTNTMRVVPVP

`C1=Cc2ccccc2Nc2ccccc21` [ISB, Iminostilbene] showed a Kd of 18.6 µM.
